Test results published in PMC12125351 (Communications Biology, 2025).
No end group written: not given here.

Test system: P. aeruginosa (ATCC 27853)
Format: cell-based
Conditions: broth microdilution in MHB, 37 °C, 16–20 h; triplicate, n = 3

LVQRGRFGRFLSRIRRIRPRINFNIKGSI [AMP-17]
Experimentally measured MIC against P. aeruginosa (ATCC 27853): above 25 μM
